Measured values: patent US4594342A, “1,5-benzothiazepine derivative” (priority 1984, dated 1986)
Counter-ions that a name gives are not always drawn.

How the values were obtained:
[1] = tested on: rat platelets; assay: Inhibitory effect ex vivo on collagen-induced platelet aggregation of rat platelets after oral administration (Experiment 2); type: in vivo; conditions: 10 mg/kg orally, Sprague-Dawley rats fasted about 20 hours, blood 3 hours after administration
Procedure: A test compound solution (Dose: 10 mg/kg) was orally administered to Sprague-Dawley rats fasted for about 20 hours. Three hours after administration, blood was collected from the abdominal aorta of the rats. […] The bottom layer was further centrifuged to give platelet-poor plasma ("PPP") as the supernatant solution. PRP was diluted with PPP so that the blood platelet counts were 0.8-1×10^6 /mm^3.

[2] = tested on: Human platelets; assay: Inhibitory effects in vitro on collagen-induced platelet aggregation of human platelets (Experiment 1); type: cell-based; conditions: human PRP, 37° C., read-out: IC50 (concentration of test compound required to induce 50% inhibition of collagen-induced platelet aggregation)
Source text: (§1) (Inhibitory effects in vitro on collagen-induced platelet aggregation of rat or human platelets)
(§2) The bottom layer was further centrifuged to give platelet-poor plasma ("PPP") as the supernatant solution. Platelet counts were adjusted to about 0.8-1×10^6 /mm^3 for rat PRP and about 4×10^5 /mm^3 for human PRP by dilution with PPP.

[3] = tested on: Rat platelets; assay: Inhibitory effects in vitro on collagen-induced platelet aggregation of rat platelets (Experiment 1); type: cell-based; conditions: rat PRP, 37° C., read-out: IC50 (concentration of test compound required to induce 50% inhibition of collagen-induced platelet aggregation)
Source text: as §1, §2

Row | IC50 [2] [µg/mL] | IC50 [3] [µg/mL] | SMILES | Platelet aggregation-inhibiting activity [1]
1 | – | – | CNCCN1C(=O)[C@H](O)[C@H](c2ccc(OC)cc2)Sc2cc(C)ccc21.Cl (racemic) [(±)-cis-2-(4-methoxyphenyl)-3-hydroxy-5-[2-(N-methylamino)ethyl]-8-methyl-2,3-dihydro-1,5-benzothiazepin-4(5H)-one hydrochloride] | ++ ((++) if the percentage inhibition is not less than 50%)
2 | 0.3 | – | Br.CNCCN1C(=O)[C@H](O)[C@H](c2ccc(C)cc2)Sc2ccccc21 (racemic) [(±)-cis-2-(4-methylphenyl)-3-hydroxy-5-[2-(N-methylamino)ethyl]-2,3-dihydro-1,5-benzothiazepin-4(5H)-one hydrobromide] | –
3 | – | – | CNCCN1C(=O)[C@H](O)[C@H](c2ccc(OC)cc2)Sc2cc(O)ccc21 (relative stereo) [(±)-cis-2-(4-methoxyphenyl)-3,8-dihydroxy-5-[2-(N--methylamino)ethyl]-2,3-dihydro-1,5-benzothiazepin-4(5H)--one hydrochloride] | ++ ((++) if the percentage inhibition is not less than 50%)
4 | – | – | CNCCN1C(=O)[C@H](OC(C)=O)[C@H](c2ccc(OC)cc2)Sc2cc(C)ccc21 (relative stereo) [(±)-cis-2-(4-methoxyphenyl)-3-acetoxy-5-[2-(N-methylamino)ethyl]-8-methyl-2,3-dihydro-1,5-benzothiazepin-4(5H)-one hydrochloride. 1/2H2 O.1/2C2 H5 OH] | ++ ((++) if the percentage inhibition is not less than 50%)
5 | 0.5 | 0.3 to 1 | CNCCN1C(=O)[C@H](O)[C@H](c2ccc(C)cc2)Sc2cc(OC)ccc21 (relative stereo) [(±)-cis-2-(4-methylphenyl)-3-hydroxy-5-[2-(N--methylamino)ethyl]-8-methoxy-2,3-dihydro-1,5-benzothiazepin-4(5H)--one hydrochloride] | –
6 | 0.3 | – | CNCCN1C(=O)[C@H](O)[C@H](c2ccc(C)cc2)Sc2cc(C)ccc21 (relative stereo) [(±)-cis-2-(4-methylphenyl)-3-hydroxy-5-[2-(N--methylamino)ethyl]-8-methyl-2,3-dihydro-1,5-benzothiazepin-4(5H)--one hydrochloride] | ++ ((++) if the percentage inhibition is not less than 50%)
7 | – | 0.1 to 0.3 | CNCCN1C(=O)[C@H](O)[C@H](c2ccc(C)cc2)Sc2cc(C)ccc21 (relative stereo) [(±)-cis-2-(4-methylphenyl)-3-hydroxy-5-[2-(N--methylamino)ethyl]-8-methyl-2,3-dihydro-1,5-benzothiazepin-4(5H)--one sulfate] | –
8 | – | – | CNCCN1C(=O)[C@H](OC(C)=O)[C@H](c2ccc(OC)cc2)Sc2cc(C)ccc21.O=C(O)C(=O)O (single isomer, unassigned) [(-)-cis-2-(4-methoxyphenyl)-3-acetoxy-5-[2-(N-methylamino)ethyl]-8-methyl-2,3-dihydro-1,5-benzothiazepin-4(5H)-one oxalate] | ++ ((++) if the percentage inhibition is not less than 50%)
9 | – | – | CNCCN1C(=O)[C@H](O)[C@H](c2ccc(OC)cc2)Sc2cc(C)ccc21 (single isomer, unassigned) [(-)-cis-2-(4-methoxyphenyl)-3-hydroxy-5-[2-(N--methylamino)ethyl]-8-methyl-2,3-dihydro-1,5-benzothiazepin-4(5H)--one hydrobromide] | ++ ((++) if the percentage inhibition is not less than 50%)
10 | 0.003 to 0.03 | 0.1 | CNCCN1C(=O)[C@H](O)[C@H](c2ccc(C)cc2)Sc2cc(C)ccc21 (single isomer, unassigned) [(-)-cis-2-(4-methylphenyl)-3-hydroxy-5-[2-(N-methylamino)ethyl]-8-methyl-2,3-dihydro-1,5-benzothiazepin-4(5H)-one hydrochloride hemihydrate] | –

Row | SMILES | IC50 [2] [µg/mL] | IC50 [3] [µg/mL] | Platelet aggregation-inhibiting activity [1]
11 | CNCCN1C(=O)[C@H](OC(C)=O)[C@H](c2ccc(C)cc2)Sc2cc(OC)ccc21 (relative stereo) [(±)-cis-2-(4-methylphenyl)-3-acetoxy-5-[2-(N--methylamino)ethyl]-8-methoxy-2,3-dihydro-1,5-benzothiazepin-4(5H)--one oxalate] | 0.5 | – | –
12 | CNCCN1C(=O)[C@H](OC(C)=O)[C@H](c2ccc(C)cc2)Sc2cc(C)ccc21 (relative stereo) [(±)-cis-2-(4-methylphenyl)-3-acetoxy-5-[2-(N--methylamino)ethyl]-8-methyl-2,3-dihydro-1,5-benzothiazepin-4(5H)--one hydrochloride] | – | 0.5 | ++ ((++) if the percentage inhibition is not less than 50%)
